Assays:
[1] = system: NOMO-1; assay: Cytotoxicity against human NOMO-1 cells measured after 8 days; assay type: functional, cell-based; conditions: NOMO-1, 192 h
[2] = system: SW982; assay: Cytotoxicity against human SW982 cells measured after 8 days; assay type: functional, cell-based; conditions: SW982, 192 h
[3] = system: AN3-CA; assay: Cytotoxicity against human AN3-CA cells measured after 8 days; assay type: functional, cell-based; conditions: 192 h
[4] = Cytotoxicity against human UM-RC-6 cells measured after 8 days; assay type: functional, cell-based; conditions: UM-RC-6, 192 h
[5] = system: RT-4; assay: Cytotoxicity against human RT-4 cells measured after 8 days; assay type: functional, cell-based; conditions: RT-4, 192 h
[6] = system: Ishikawa; assay: Cytotoxicity against human Ishikawa cells measured after 8 days; assay type: functional, cell-based; conditions: 192 h
[7] = system: B16-F1; assay: Cytotoxicity against mouse B16-F1 cells measured after 8 days; assay type: functional, cell-based; conditions: B16-F1, 192 h
[8] = system: SU-DHL-8; assay: Cytotoxicity against human SU-DHL-8 cells measured after 8 days; assay type: functional, cell-based; conditions: SU-DHL-8, 192 h
[9] = Cytotoxicity against human SK23 cells measured after 8 days; assay type: functional, cell-based; conditions: SK-MEL-23, 192 h
[10] = system: JIYOYE; assay: Cytotoxicity against human JIYOYE cells measured after 8 days; assay type: functional, cell-based; conditions: 192 h
[11] = Cytotoxicity against mouse 4T1-Luc cells measured after 8 days; assay type: functional, cell-based; conditions: 192 h
[12] = Cytotoxicity against human NCE-G 141 cells measured after 8 days; assay type: functional, cell-based; conditions: NCE-G 141, 192 h
[13] = system: MDA-MB-453; assay: Cytotoxicity against human MDA-MB-453 cells measured after 8 days; assay type: functional, cell-based; conditions: MDA-MB-453, 192 h
[14] = Cytotoxicity against human KR7110 cells measured after 8 days; assay type: functional, cell-based; conditions: KR7110, 192 h
[15] = Cytotoxicity against human COV362.4 cells measured after 8 days; assay type: functional, cell-based; conditions: COV362.4, 192 h
[16] = system: PEO1; assay: Cytotoxicity against human PEO1 cells measured after 8 days; assay type: functional, cell-based; conditions: PEO1, 192 h
[17] = system: SF-539; assay: Cytotoxicity against human SF-539 cells measured after 8 days; assay type: functional, cell-based; conditions: SF-539, 192 h
[18] = system: SK-MEL-1; assay: Cytotoxicity against human SK-MEL-1 cells measured after 8 days; assay type: functional, cell-based; conditions: SK-MEL-1, 192 h
[19] = system: A 172; assay: Cytotoxicity against human A-172 cells measured after 8 days; assay type: functional, cell-based; conditions: A 172, 192 h
[20] = Cytotoxicity against mouse 66cl-4 cells measured after 8 days; assay type: functional, cell-based; conditions: 66cl-4, 192 h
[21] = Cytotoxicity against human KMRC-1 cells measured after 8 days; assay type: functional, cell-based; conditions: KMRC-1, 192 h
[22] = Cytotoxicity against human VP229 cells measured after 8 days; assay type: functional, cell-based; conditions: VP229, 192 h
[23] = species: Homo sapiens; assay: Inhibition of human N muscle type receptor at 10 uM relative to control
[24] = system: KP-N-YN; assay: Cytotoxicity against human KP-N-YN cells measured after 8 days; assay type: functional, cell-based; conditions: 192 h
[25] = system: SU-DHL-6; assay: Cytotoxicity against human SU-DHL-6 cells measured after 8 days; assay type: functional, cell-based; conditions: SU-DHL-6, 192 h
[26] = system: NCI-N87; assay: Cytotoxicity against human NCI-N87 cells measured after 8 days; assay type: functional, cell-based; conditions: NCI-N87, 192 h
[27] = Cytotoxicity against human FA9JTOTERT cells measured after 8 days; assay type: functional, cell-based; conditions: 192 h
[28] = system: TOV21G; assay: Cytotoxicity against human TOV-21G cells measured after 8 days; assay type: functional, cell-based; conditions: 192 h
[29] = Cytotoxicity against human HCC597 cells measured after 8 days; assay type: functional, cell-based; conditions: HCC597, 192 h
[30] = system: TYK-nu; assay: Cytotoxicity against human TYK-nu cells measured after 8 days; assay type: functional, cell-based; conditions: 192 h
[31] = system: 8505C; assay: Cytotoxicity against human 8505C cells measured after 8 days; assay type: functional, cell-based; conditions: 192 h
[32] = system: SU-DHL10; assay: Cytotoxicity against human SU-DHL-10 cells measured after 8 days; assay type: functional, cell-based; conditions: SU-DHL10, 192 h
[33] = system: C2BBe1; assay: Cytotoxicity against human C2BBe1 cells measured after 8 days; assay type: functional, cell-based; conditions: C2BBe1, 192 h
[34] = system: HMV-2 cell line; assay: Cytotoxicity against human HMV-2 cell line measured after 8 days; assay type: functional, cell-based; conditions: HMV-2, 192 h
[35] = system: TK-10; assay: Cytotoxicity against human TK-10 cells measured after 8 days; assay type: functional, cell-based; conditions: TK-10, 192 h
[36] = Cytotoxicity against human SW403 cells measured after 8 days; assay type: functional, cell-based; conditions: SW-403, 192 h
[37] = system: AGS; assay: Cytotoxicity against human AGS cells measured after 8 days; assay type: functional, cell-based; conditions: 192 h
[38] = system: MG-63; assay: Cytotoxicity against human MG-63 cells measured after 8 days; assay type: functional, cell-based; conditions: MG-63, 192 h
[39] = system: SK-MEL-30; assay: Cytotoxicity against human SK-MEL-30 cells measured after 8 days; assay type: functional, cell-based; conditions: SK-MEL-30, 192 h
[40] = system: IGR-1; assay: Cytotoxicity against human IGR-1 cells measured after 8 days; assay type: functional, cell-based; conditions: IGR-1, 192 h
[41] = system: SH-SY5Y; assay: Cytotoxicity against human SH-SY5Y cells measured after 8 days; assay type: functional, cell-based; conditions: 192 h
[42] = system: SW1990; assay: Cytotoxicity against human SW1990 cells measured after 8 days; assay type: functional, cell-based; conditions: SW1990, 192 h
[43] = system: RPMI-8226; assay: Cytotoxicity against human RPMI-8226 cells measured after 8 days; assay type: functional, cell-based; conditions: RPMI-8226, 192 h
[44] = system: MC-IXC; assay: Cytotoxicity against human MC-IXC cells measured after 8 days; assay type: functional, cell-based; conditions: 192 h
[45] = Cytotoxicity against human HCS-2 cells measured after 8 days; assay type: functional, cell-based; conditions: HCS-2, 192 h
[46] = system: CHL-1; assay: Cytotoxicity against human CHL-1 cells measured after 8 days; assay type: functional, cell-based; conditions: CHL-1, 192 h
[47] = system: 23132-87; assay: Cytotoxicity against human 23132-87 cells measured after 8 days; assay type: functional, cell-based; conditions: 23132-87, 192 h
[48] = Cytotoxicity against human ASH-3 cells measured after 8 days; assay type: functional, cell-based; conditions: ASH-3, 192 h
[49] = system: SET-2; assay: Cytotoxicity against human SET2 cells measured after 8 days; assay type: functional, cell-based; conditions: SET-2, 192 h
[50] = system: B16-F10; assay: Cytotoxicity against mouse B16-F10 cells measured after 8 days; assay type: functional, cell-based; conditions: B16-F10, 192 h
[51] = Cytotoxicity against human OVCA432 cells measured after 8 days; assay type: functional, cell-based; conditions: OVCA432, 192 h
[52] = system: L-363; assay: Cytotoxicity against human L-363 cells measured after 8 days; assay type: functional, cell-based; conditions: L-363, 192 h
[53] = system: COR-L47; assay: Cytotoxicity against human COR-L47 cells measured after 8 days; assay type: functional, cell-based; conditions: COR-L47, 192 h
[54] = Cytotoxicity against human HCC364 cells measured after 8 days; assay type: functional, cell-based; conditions: HCC364, 192 h
[55] = Cytotoxicity against human T.T cells measured after 8 days; assay type: functional, cell-based; conditions: TT, 192 h
[56] = Cytotoxicity against human KHM-5M cells measured after 8 days; assay type: functional, cell-based; conditions: 192 h
[57] = system: OV-90; assay: Cytotoxicity against human OV-90 cells measured after 8 days; assay type: functional, cell-based; conditions: OV-90, 192 h
[58] = system: Karpas-1106P; assay: Cytotoxicity against human KARPAS-1106P cells measured after 8 days; assay type: functional, cell-based; conditions: 192 h
[59] = system: LN-229; assay: Cytotoxicity against human LN-229 cells measured after 8 days; assay type: functional, cell-based; conditions: LN-229, 192 h
[60] = Cytotoxicity against human COLO 858 cells measured after 8 days; assay type: functional, cell-based; conditions: COLO 858, 192 h
[61] = Cytotoxicity against human Panc 04.03 cells measured after 8 days; assay type: functional, cell-based; conditions: Panc 04.03, 192 h

C/C=C/Cn1cc(-c2ccc(C(C)(C)O)cc2OC)c2cc[nH]c2c1=O
6.07 µM: IC50 [9]
20 µM: IC50 [1] | IC50 [2] | IC50 [3] | IC50 [4] | IC50 [5] | IC50 [6] | IC50 [7] | IC50 [11] | IC50 [12] | IC50 [13] | IC50 [14] | IC50 [15] | IC50 [16] | IC50 [17] | IC50 [18] | IC50 [19] | IC50 [20] | IC50 [21] | IC50 [22] | IC50 [24] | IC50 [26] | IC50 [27] | IC50 [28] | IC50 [29] | IC50 [30] | IC50 [31] | IC50 [33] | IC50 [34] | IC50 [35] | IC50 [36] | IC50 [37] | IC50 [39] | IC50 [40] | IC50 [41] | IC50 [42] | IC50 [43] | IC50 [44] | IC50 [45] | IC50 [47] | IC50 [48] | IC50 [49] | IC50 [50] | IC50 [51] | IC50 [52] | IC50 [53] | IC50 [54] | IC50 [55] | IC50 [56] | IC50 [57] | IC50 [59] | IC50 [60] | IC50 [61]
8.61 µM: IC50 [58]
3.26 µM: IC50 [8]
11.1 µM: IC50 [25]
13.5 µM: IC50 [10]
7.4 µM: IC50 [38]
15.2 µM: IC50 [46]
10.9 µM: IC50 [32]
-7%: inhibition [23]

C/C=C/Cn1cc(-c2ccc(C(=O)N3CCOCC3)cc2)c2cc[nH]c2c1=O
12.1 µM: IC50 [25]
12.2 µM: IC50 [58]
10.4 µM: IC50 [52]
2.85 µM: IC50 [10]
11.1 µM: IC50 [49]
-1%: inhibition [23]
15.2 µM: IC50 [46]
12.8 µM: IC50 [8]
20 µM: IC50 [1] | IC50 [2] | IC50 [3] | IC50 [4] | IC50 [5] | IC50 [6] | IC50 [9] | IC50 [11] | IC50 [12] | IC50 [13] | IC50 [14] | IC50 [15] | IC50 [16] | IC50 [17] | IC50 [18] | IC50 [19] | IC50 [20] | IC50 [21] | IC50 [22] | IC50 [24] | IC50 [26] | IC50 [27] | IC50 [28] | IC50 [29] | IC50 [30] | IC50 [31] | IC50 [32] | IC50 [33] | IC50 [34] | IC50 [35] | IC50 [36] | IC50 [37] | IC50 [38] | IC50 [39] | IC50 [40] | IC50 [41] | IC50 [42] | IC50 [43] | IC50 [44] | IC50 [45] | IC50 [47] | IC50 [48] | IC50 [50] | IC50 [51] | IC50 [53] | IC50 [54] | IC50 [55] | IC50 [56] | IC50 [57] | IC50 [59] | IC50 [60] | IC50 [61]
13.5 µM: IC50 [7]

Reference: ChEMBL document CHEMBL5260810, “Inhibition of bromodomain-containing protein 9 for the prevention of epigenetically-defined drug resistance” (Bioorg Med Chem Lett, 2017)
